The record followed here is patent US6235771A, “Anilide derivative, production and use thereof” (Takeda Chemical Industries, Ltd., priority 1998, dated 2001).

The target in the first assay is T1, human CCR5 (Homo sapiens, UniProt P51681).
T1 construct: expressed in transfected cells; host or cells: CHO-K1 cells, electroporated with plasmid pCKR5 (pcDNA3.1 backbone), geneticin-selected (CHO/CCR5)
T1 sequence (P51681 whole entry): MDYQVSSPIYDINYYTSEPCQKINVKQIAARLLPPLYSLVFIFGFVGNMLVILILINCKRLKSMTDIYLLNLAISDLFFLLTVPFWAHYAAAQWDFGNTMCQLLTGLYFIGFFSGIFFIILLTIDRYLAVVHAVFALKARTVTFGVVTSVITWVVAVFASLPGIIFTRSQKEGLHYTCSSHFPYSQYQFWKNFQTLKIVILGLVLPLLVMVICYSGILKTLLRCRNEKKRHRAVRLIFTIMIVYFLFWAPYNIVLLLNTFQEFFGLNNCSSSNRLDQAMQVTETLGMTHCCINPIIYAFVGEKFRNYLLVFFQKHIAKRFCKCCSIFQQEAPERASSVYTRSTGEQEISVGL
Put plainly: Inhibition of [125I]-RANTES binding to human CCR5 in CHO/CCR5 cells (CCR5 antagonistic activity). The note with it: Test Compound 1 μM, 100 pM [125I]-RANTES, room temperature, 40 minutes, read-out: Inhibition Rate (CCR5 binding). As to the method:
Cloning of CCR5 gene was carried out by PCR (polymerase chain reaction) from human spleen cDNA. With using 0.5 ng of spleen cDNA (Toyobo, QUICK-Clone cDNA) as template, PCR was performed in DNA Thermal Cycler 480 (Perkin-Elmer) (reaction conditions: 30 cycles of 95° C. for 1 minute, 60° C. for 1 minute, and 75° C. for 5 minutes) by adding primer set, 5'-[…]-3' (25 pmol) and 5'-[…]-3' (25 pmol), which were designed referring to nucleotide sequence of CCR5 gene reported by Samson et al. (Biochemistry, 35(11), 3362-3367 (1996)) and by using TaKaRa EX Taq (TakaraShuzo). The resultant PCR product was subjected to agarose gel. electrophoresis to collect about 1.0 kb DNA fragment, which was subjected to Original TA Cloning Kit (Funakoshi) to carry out cloning of CCR5 gene.
The plasmid obtained in the above (1) was digested with restriction enzymes XbaI (Takara Shuzo) and BamHI (Takara Shuzo) and subjected to agarose gel electrophoresis to collect about 1.0 kb DNA fragment. The DNA fragment was mixed with plasmid pcDNA3.1 (Funakoshi) for expression in animal cells, said plasmid being digested with XbaI and BamHI, and they were ligated with DNA Ligation Kit Ver.2 (Takara Shuzo). The resulting plasmid was subjected to transformation of competent cell of E. coli JM109 (Takara Shuzo) to obtain plasmid pCKR5.
CHO-K1 cells were grown in 750 ml of tissue culture flask (Becton Dickinson) using Ham's F12 medium (Nihon Pharmaceutical) containing 10% fetal calf serum (Life Tech Oriental) and took off with 0.5 g/L trypsin-0.2 g/L EDTA (Life Tech Oriental). The cells were washed with PBS (Life Tech Oriental), centrifuged (1000 rpm, 5 minutes), and suspended in PBS. With using Gene Pulser (Bio-Rad Laboratories), DNA was introduced into the cells under the conditions shown below. That is, to the cuvette of 0.4 cm gap were added 8×10^6 cells and 10 μg of plasmid pCKR5 for expression of human CCR5, and electroporation was carried out under 0.25 kV of voltage and 960 μF of capacitance. The cells were transferred into Ham's F12 medium (Nihon Pharmaceutical) containing 10% fetal calf serum, and cultivated for 24 hours. The cells were again took off and centrifuged, and suspended in Ham's F12 medium (Nihon Pharmaceutical) containing 10% fetal calf serum and 500 μg/ml of geneticin (Life Tech Oriental). The suspension was diluted to give 10^4 cells/ml of the suspension, which was inoculated on 96 well plate (Becton Dickinson) to give geneticin resistant cells. The resulting geneticin resistant cells were cultivated in 96 well plate (Becton Dickinson), and cells expressing CCR5 were selected from the geneticin resistant cells. That is, in assay buffer (Ham's F12 medium containing 0.5% BSA and 20 mM HEPES (Wako Pure Chemical, pH7.2) to which was added 200 pM of [^125 I]-RANTES (Amersham) as ligand, binding reaction was carried out at room temperature for 40 minutes, and the buffer was washed with cooled PBS. To the buffer was added 50 μl/well of 1M NaOH, and the mixture was stirred. Radioactivity was determined with γ-counter to select CHO/CCR5 cells which specifically bind to the ligand.
The CHO/CCR5 were inoculated on 96 well microplate (5×10^4 cells/well) and cultivated for 24 hours. The medium was removed by means of suction, and to each well was added assay buffer containing Test Compound (1 μM) and then 100 pM of [^125 I]-RANTES (Amersham) as ligand. Binding assay was carried out at room temperature for 40 minutes, and assay buffer was removed by means of suction. Each well was washed twice with cooled PBS, and 200 μl of Microscint-20 (Packard Instrument, Inc.) was added to each well. Radio-activity was determined with Top-Count Micro Scintillation Counter (Packard Instrument, Inc.).
According to the method described above, inhibition rate of Test Compound (whose number is referred to in the following Examples) to CCR5 binding.
In the case of `CCCOCCOc1ccc(-c2ccc3c(c2)C=C(C(=O)Nc2ccc(CN(C)C4CCOCC4)cc2)CCS3(=O)=O)cc1OCC` [Compound 73, 7-[3-ethoxy-4-(2-propoxyethoxy)phenyl]-N-[4-[[N-methyl-N-(tetrahydropyran-4-yl)amino]methyl]phenyl]-1,1-dioxo-2,3-dihydro-1-benzothiepine-4-carboxamide], the inhibition at 1 µM turned out to be 94%.

Regarding `CCCCOc1ccc(-c2ccc3c(c2)C=C(C(=O)Nc2ccc(CN(C)C4CCOCC4)cc2)CCS3(=O)=O)cc1` [Compound 30, 7-(4-butoxyphenyl)-N-[4-[N-methyl-N-(tetrahydropyran-4-yl)aminomethyl]phenyl]-1,1-dioxo-2,3-dihydro-1-benzothiepine-4-carboxamide], the inhibition at 1 µM worked out at 99%.

Regarding `CCCCOCCOc1ccc(-c2ccc3c(c2)C=C(C(=O)Nc2ccc(CN(C)C4CCOCC4)cc2)CCS3(=O)=O)cc1` [Compound 98, 7-[4-(2-butoxyethoxy)phenyl]-N-[4-[[N-methyl-N-(tetrahydropyran-4-yl)amino]methyl]phenyl]-1,1-dioxo-2,3-dihydro-1-benzothiepine-4-carboxamide], the inhibition at 1 µM stood at 98%.

In the case of `CCOCCOc1ccc(-c2ccc3c(c2)C=C(C(=O)Nc2ccc(CN(C)C4CCOCC4)cc2)CCS3(=O)=O)cc1C` [Compound 129, 7-[4-(2-ethoxyethoxy)-3-methyl-phenyl]-N-[4-[[N-methyl-N-(tetrahydropyran-4-yl)amino]methyl]phenyl]-1,1-dioxo-2,3-dihydro-1-benzothiepine-4-carboxamide], the inhibition at 1 µM stood at 95%.

For the compound `CCCc1ccc(-c2ccc3c(c2)C=C(C(=O)Nc2ccc(CN(C)C4CCOCC4)cc2)CCS3(=O)=O)cc1` [Compound 27, N-[4-[N-methyl-N-(tetrahydropyran-4-yl)aminomethyl]phenyl]-7-(4-propylphenyl)-1,1-dioxo-2,3-dihydro-1-benzothiepine-4-carboxamide], the inhibition at 1 µM came out at 100%.

In the case of `CCOCCOc1c(C)cc(-c2ccc3c(c2)C=C(C(=O)Nc2ccc(CN(C)C4CCOCC4)cc2)CCS3(=O)=O)cc1C` [Compound 124, 7-[4-(2-ethoxyethoxy)-3,5-dimethylphenyl]-N-[4-[[N-methyl-N-(tetrahydro-2H-pyran-4-yl)amino]methyl]phenyl]-1,1-dioxo-2,3-dihydro-1-benzothiepine-4-carboxamide], the inhibition at 1 µM came to 97%.

For the compound `CCCOCCOc1ccc(-c2ccc3c(c2)C=C(C(=O)Nc2ccc(CN(C)C4CCOCC4)cc2)CCS3(=O)=O)cc1Cl` [Compound 74, 7-[3-chloro-4-(2-propoxyethoxy)phenyl]-N-[4-[[N-methyl-N-(tetrahydropyran-4-yl)amino]methyl]phenyl]-1,1-dioxo-2,3-dihydro-1-benzothiepine-4-carboxamide], the inhibition at 1 µM turned out to be 94%.

Turning to `CC(C)OCCOc1ccc(-c2ccc3c(c2)C=C(C(=O)Nc2ccc(CN(C)C4CCOCC4)cc2)CCS3(=O)=O)cc1` [Compound 111, 7-[4-(2-isopropoxyethoxy)phenyl]-N-[4-[[N-methyl-N-(tetrahydropyran-4-yl)amino]methyl]phenyl]-1,1-dioxo-2,3-dihydro-1-benzothiepine-4-carboxamide], the inhibition at 1 µM worked out at 95%.

For `CCN(CC)c1ccc(-c2ccc3c(c2)C=C(C(=O)Nc2ccc(CN(C)C4CCOCC4)cc2)CCS3(=O)=O)cc1` [Compound 54, 7-(4-diethylaminophenyl)-N-[4-[[N-methyl-N-(tetrahydropyran-4-yl)amino]methyl]phenyl]-1,1-dioxo-2,3-dihydro-1-benzothiepine-4-carboxamide], the inhibition at 1 µM is 99%.

As for `CCOCCOc1ccc(-c2ccc3c(c2)C=C(C(=O)Nc2ccc(CN(C)C4CCOCC4)cc2)CCS3(=O)=O)cc1` [Compound 84, 7-[4-(2-ethoxyethoxy)phenyl]-N-[4-[[N-methyl-N-(tetrahydropyran-4-yl)amino]methyl]phenyl]-1,1-dioxo-2,3-dihydro-1-benzothiepine-4-carboxamide], the inhibition at 1 µM was 97%.

Consider `CCOc1ccc(-c2ccc3c(c2)C=C(C(=O)Nc2ccc(CN(C)C4CCOCC4)cc2)CCS3(=O)=O)cc1` [Compound 4, 7-(4-ethoxyphenyl)-N-[4-[N-methyl-N-(tetrahydropyran-4-yl)aminomethyl]phenyl]-1,1-dioxo-2,3-dihydro-1-benzothiepine-4-carboxamide], for which the inhibition at 1 µM came out at 91%.

Turning to `CCOCCCc1ccc(-c2ccc3c(c2)C=C(C(=O)Nc2ccc(CN(C)C4CCOCC4)cc2)CCS3(=O)=O)cc1` [Compound 123, 7-[4-(3-ethoxypropyl)phenyl]-N-[4-[[N-methyl-N-(tetrahydro-2H-pyran-4-yl)amino]methyl]phenyl]-1,1-dioxo-2,3-dihydro-1-benzothiepine-4-carboxamide], the inhibition at 1 µM worked out at 94%.

As to `CCCOc1ccc(-c2ccc3c(c2)C=C(C(=O)Nc2ccc(CN(C)C4CCOCC4)cc2)CCS3(=O)=O)cc1OCC` [Compound 125, 7-(3-ethoxy-4-propoxyphenyl)-N-[4-[[N-methyl-N-(tetrahydro-2H-pyran-4-yl)amino]methyl]phenyl]-1,1-dioxo-2,3-dihydro-1-benzothiepine-4-carboxamide], the inhibition at 1 µM was found to be 92%.

Regarding `CCCOCCOc1ccc(-c2ccc3c(c2)C=C(C(=O)Nc2ccc(CN(C)C4CCOCC4)cc2)CCS3(=O)=O)cc1C` [Compound 75, 7-[3-methyl-4-(2-propoxyethoxy)phenyl]-N-[4-[[N-methyl-N-(tetrahydropyran-4-yl)amino]methyl]phenyl]-1,1-dioxo-2,3-dihydro-1-benzothiepine-4-carboxamide], the inhibition at 1 µM was 95%.

In the case of `CCSc1ccc(-c2ccc3c(c2)C=C(C(=O)Nc2ccc(CN(C)C4CCOCC4)cc2)CCS3(=O)=O)cc1` [Compound 44, 7-[(4-ethylthio)phenyl]-N-[4-[N-methyl-N-(tetrahydropyran-4-yl)aminomethyl]phenyl]-1,1-dioxo-2,3-dihydro-1-benzothiepine-4-carboxamide], the inhibition at 1 µM is 96%.

Another assay relates to HIV-1 BA-L. Put plainly: Inhibitory effect on HIV-1 infection to MAGI-CCR5 cell (β-galactosidase activity). The settings on record: 100 μl of medium containing 1.6 μM Test Compound plus 100 μl of medium containing 300PFU HIV-1 BA-L; MAGI-CCR5 cells; 37° C., 2 days. It counts as cell-based. As to the method:
The plasmid where β-galactosidase gene was ligated downstream of HIV-1 LTR was introduced into CD4 positive HeLa cell, to which human CCR5 was further introduced to obtain transformant MAGI-CCR5. By using said transformant MAGI-CCR5, degree of HIV-1 infection was calculated from β-galactosidase activity (blue color due to decomposition of 5-bromo-4-chloro-3-indolyl-β-D-galactopyranoside). Specifically, MAGI-CCR5 cells were suspended in DMEM medium containing 10% serum to prepare 5×10^4 cells/ml suspension. To each well of 96 well plate was inoculated 200 μl of the suspension, and the cells were cultivated at 37° C. overnight. The medium was removed by means of suction, and to the residue was added 100 μl of the above medium containing 1.6 μM of Test Compound and 100 μl of the above medium containing 300PFU of HIV-1 BA-L cells. The cells were cultivated at 37° C. for 2 days. The medium was removed by means of suction. To the residue was added 200 μl of cell fixative (PBS containing 1% formaldehyde and 0.2% glutaraldehyde), and the mixture was allowed to stand at room temperature for 5 minutes and washed twice with PBS. To the mixture was added 100 μl of staining solution (PBS containing […] and 0.4 mg/ml X-gal), and the mixture was allowed to stand at 37° C. for 50 minutes and washed twice with PBS. The number of blue cells was counted by microscope and defined as the number of cells infected with HIV-1. According to this method, inhibition rate on HIV-1 infection was determined.
With `CCCCOc1ccc(-c2ccc3c(c2)C=C(C(=O)Nc2ccc(CN(C)C4CCOCC4)cc2)CCS3(=O)=O)cc1` [Compound 30, 7-(4-butoxyphenyl)-N-[4-[N-methyl-N-(tetrahydropyran-4-yl)aminomethyl]phenyl]-1,1-dioxo-2,3-dihydro-1-benzothiepine-4-carboxamide], the “Inhibition Rate (HIV-1 infection)” value came to 91%.

`CCCCOCCOc1ccc(-c2ccc3c(c2)C=C(C(=O)Nc2ccc(CN(C)C4CCOCC4)cc2)CCS3(=O)=O)cc1` [Compound 98, 7-[4-(2-butoxyethoxy)phenyl]-N-[4-[[N-methyl-N-(tetrahydropyran-4-yl)amino]methyl]phenyl]-1,1-dioxo-2,3-dihydro-1-benzothiepine-4-carboxamide]: the “Inhibition Rate (HIV-1 infection)” value was 91%.

As usually defined, the inhibition is the drop in the measured response relative to a control, in per cent.
